Reference: US8471024B2, “Tetrahydrofuropyridones” (priority 2008, dated 2013)

These compounds were tested against T1, PHD2 (Homo sapiens, UniProt Q9GZT9) (assay: Assay for HIF-PHD2 Catalytic Activity (time resolved fluorescence, VHL complex detection)). Details: FLAG-tagged full length PHD2; 0.2 μM 2-oxoglutarate, 0.5 μM HIF-1α peptide; read-out: PHD2 Binding Activity IC50.
T1 construct: FLAG-tagged full length PHD2expressed in and purified from baculovirus-infected Sf9 cells; FLAG; made in house; host or cells: baculovirus-infected Sf9 cells
T1 sequence (Q9GZT9 whole entry): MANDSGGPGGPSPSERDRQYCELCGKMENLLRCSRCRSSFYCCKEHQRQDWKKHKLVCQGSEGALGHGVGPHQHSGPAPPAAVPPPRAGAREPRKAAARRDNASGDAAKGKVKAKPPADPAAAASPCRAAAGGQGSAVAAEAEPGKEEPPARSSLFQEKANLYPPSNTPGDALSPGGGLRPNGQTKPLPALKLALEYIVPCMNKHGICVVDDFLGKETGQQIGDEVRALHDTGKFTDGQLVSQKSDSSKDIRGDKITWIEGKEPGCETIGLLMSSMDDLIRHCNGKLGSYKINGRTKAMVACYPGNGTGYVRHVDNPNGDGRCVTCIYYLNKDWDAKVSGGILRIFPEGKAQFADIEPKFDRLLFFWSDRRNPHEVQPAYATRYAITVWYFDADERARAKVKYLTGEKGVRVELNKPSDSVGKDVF
Type: biochemical
Method: Assay for HIF-PHD2Catalytic Activity To each well of a 96-well plate was added 1 μL of test compound in DMSO and 20 μl of assay buffer (50 mM Tris pH 7.4/0.01% Tween-20/0.1 mg/ml bovine serum albumin/10 μM ferrous sulfate/1mM sodium ascorbate/20 μg/ml catalase) containing 0.15 μg/ml FLAG-tagged full length PHD2expressed in and purified from baculovirus-infected Sf9 cells. After a 30 min preincubation at room temperature, the enzymatic reactions were initiated by the addition of 4 μL of substrates (final concentrations of 0.2 μM 2-oxoglutarate and 0.5 μM HIF-1α peptide biotinyl-DLDLEMLAPYJPMDDDFQL).
In the case of `O=C(O)CNC(=O)c1c(O)c2c(n(Cc3ccc(-c4ccc(F)cc4F)nc3)c1=O)COC2` [Example 44, N-[(1-{[6-(2,4-difluorophenyl)pyridin-3-yl]methyl}-4-hydroxy-2-oxo-1,2,5,7-tetrahydrofuro[3,4-b]pyridin-3-yl)carbonyl]glycine], the IC50 is reported as < 10 nM. `O=C(O)CNC(=O)c1c(O)c2c(n(Cc3ccc(-c4ccccc4OCC(F)(F)F)cc3)c1=O)COC2` [Example 34, N-[(4-hydroxy-1-{[2′-(2,2,2-trifluoroethoxy)biphenyl-4-yl]methyl}-2-oxo-1,2,5,7-tetrahydrofuro[3,4-b]pyridin-3-yl}carbonyl)glycine] was tested, and the IC50 was < 10 nM. For `CC1OCc2c1c(O)c(C(=O)NCC(=O)O)c(=O)n2Cc1ccc(C(F)(F)F)cc1` (stereo not shown) [Example 13, N-({4-hydroxy-5-methyl-2-oxo-1-[4-(trifluoromethyl)benzyl]-1,2,5,7-tetrahydrofuro[3,4-b]pyridin-3-yl}carbonyl)glycine], the IC50 was < 10 nM. `O=C(O)CNC(=O)c1c(O)c2c(n(Cc3noc(-c4ccccc4)n3)c1=O)COC2` [Example 5, N-({4-hydroxy-2-oxo-1-[(5-phenyl-1,2,4-oxadiazol-3-yl)methyl]-1,2,5,7-tetrahydrofuro[3,4-b]pyridin-3-yl}carbonyl)glycine] was tested, and the IC50 was < 10 nM. With `O=C(O)CNC(=O)c1c(O)c2c(n(Cc3ccc(-c4ccccc4OC(F)(F)F)nc3)c1=O)COC2` [Example 48, N-{[4-hydroxy-2-oxo-1-({6-[2-(trifluoromethoxy)phenyl]pyridin-3-yl}methyl)-1,2,5,7-tetrahydrofuro[3,4-b]pyridin-3-yl]carbonyl}glycine] the IC50 was < 10 nM. With `O=C(O)CNC(=O)c1c(O)c2c(n(Cc3ccc(-c4ccc(F)cc4Cl)nc3)c1=O)COC2` [Example 50, N-[(1-{[6-(2-chloro-4-fluorophenyl)pyridin-3-yl]methyl}-4-hydroxy-2-oxo-1,2,5,7-tetrahydrofuro[3,4-b]pyridin-3-yl)carbonyl]glycine] the IC50 was < 10 nM. `Cc1ccccc1-n1ccc(Cn2c3c(c(O)c(C(=O)NCC(=O)O)c2=O)COC3)n1` [Example 20, N-[(4-hydroxy-1-{[1-(2-methylphenyl)-1-H-pyrazol-3-yl]methyl}-2-oxo-1,2,5,7-tetrahydrofuro[3,4-b]pyridin-3-yl)carbonyl]glycine] was tested, and the IC50 was < 10 nM. In the case of `O=C(O)CNC(=O)c1c(O)c2c(n(Cc3cccnn3)c1=O)COC2` [Example 4, N-{[4-hydroxy-2-oxo-1-(pyridazin-3-ylmethyl)-1,2,5,7-tetrahydrofuro[3,4-b]pyridin-3-yl]carbonyl}glycine], the IC50 is reported as < 10 nM. In the case of `O=C(O)CNC(=O)c1c(O)c2c(n(Cc3ccc(-c4cc(Cl)cc(Cl)c4)nc3)c1=O)COC2` [Example 42, N-[(1-{[6-(3,5-dichlorophenyl)pyridin-3-yl]methyl}-4-hydroxy-2-oxo-1,2,5,7-tetrahydrofuro[3,4-b]pyridin-3-yl)carbonyl]glycine], the IC50 is reported as < 10 nM. For `O=C(O)CNC(=O)c1c(O)c2c(n(Cc3cnc(-c4ccc(F)cc4F)cn3)c1=O)COC2` [Example 51, N-[(1-{[5-(2,4-difluorophenyl)pyrazin-2-yl]methyl}-4-hydroxy-2-oxo-1,2,5,7-tetrahydrofuro[3,4-b]pyridin-3-yl)carbonyl]glycine], the IC50 was < 10 nM. For `O=C(O)CNC(=O)c1c(O)c2c(n(Cc3nc(-c4ccccc4Cl)cs3)c1=O)COC2` [Example 27, N-[(1-{[4-(2-chlorophenyl)-1,3-thiazol-2-yl]methyl)-4-hydroxy-2-oxo-1,2,5,7-tetrahydrofuro[3,4-b]pyridin-3-yl)carbonyl]glycine], the IC50 was < 10 nM. In the case of `O=C(O)CNC(=O)c1c(O)c2c(n(Cc3nc(-c4ccc(Cl)cc4Cl)cs3)c1=O)COC2` [Example 26, N-[(1-{[4-(2,4-dichlorophenyl)-1,3-thiazol-2-yl]methyl)-4-hydroxy-2-oxo-1,2,5,7-tetrahydrofuro[3,4-b]pyridin-3-yl)carbonyl]glycine], the IC50 is reported as < 10 nM. In the case of `CCN(CC)C(=O)c1ccccc1-c1ccc(Cn2c3c(c(O)c(C(=O)NCC(=O)O)c2=O)COC3)c(F)c1` [Example 40], the IC50 is reported as < 10 nM. For `O=C(O)CNC(=O)c1c(O)c2c(n(Cc3ccc(-c4ccccc4C(F)(F)F)nc3)c1=O)COC2` [Example 47, N-{[4-hydroxy-2-oxo-1-({6-[2-(trifluoromethyl)phenyl]pyridin-3-yl}methyl)-1,2,5,7-tetrahydrofuro[3,4-b]pyridin-3-yl]carbonyl}glycine], the IC50 was < 10 nM. `O=C(O)CNC(=O)c1c(O)c2c(n(Cc3ccc(-c4ccccc4OCC(F)(F)F)nc3)c1=O)COC2` [Example 46] was tested, and the IC50 was < 10 nM. `O=C(O)CNC(=O)c1c(O)c2c(n(Cc3ccc(-c4nccs4)cc3)c1=O)COC2` [Example 23, N-({4-hydroxy-2-oxo-1-[4-(1,3-thiazol-2-yl)benzyl]-1,2,5,7-tetrahydrofuro[3,4-b]pyridin-3-yl}carbonyl)glycine] was tested, and the IC50 was < 10 nM. For `O=C(O)CNC(=O)c1c(O)c2c(n(Cc3ccc(-c4ccc(Cl)cc4)cc3)c1=O)COC2` [Example 30], the IC50 was < 10 nM. With `O=C(O)CNC(=O)c1c(O)c2c(n(Cc3cnc(-c4ccccc4Cl)cn3)c1=O)COC2` [Example 53, N-[(1-{[5-(2-chlorophenyl)pyrazin-2-yl]methyl}-4-hydroxy-2-oxo-1,2,5,7-tetrahydrofuro[3,4-b]pyridin-3-yl)carbonyl]glycine] the IC50 was < 10 nM. With `O=C(O)CNC(=O)c1c(O)c2c(n(Cc3ccc(-c4ccccc4Cl)nc3)c1=O)COC2` [Example 29] the IC50 was < 10 nM. For `Cc1cnc(Cn2c3c(c(O)c(C(=O)NCC(=O)O)c2=O)COC3)cn1` [Example 7], the IC50 was < 10 nM. `O=C(O)CNC(=O)c1c(O)c2c(n(Cc3ccc(-c4cc(F)ccc4F)nc3)c1=O)COC2` [Example 45, N-[(1-{[6-(2,5-difluorophenyl)pyridin-3-yl]methyl}-4-hydroxy-2-oxo-1,2,5,7-tetrahydrofuro[3,4-b]pyridin-3-yl)carbonyl]glycine] was tested, and the IC50 was < 10 nM. For `O=C(O)CNC(=O)c1c(O)c2c(n(Cc3ccc(OCC(F)(F)F)nc3)c1=O)COC2` [Example 19, N-[(4-hydroxy-2-oxo-1-{[6-(2,2,2-trifluoroethoxy)pyridin-3-yl]methyl}-1,2,5,7-tetrahydrofuro[3,4-b]pyridin-3-yl)carbonyl]glycine], the IC50 was < 10 nM. With `O=C(O)CNC(=O)c1c(O)c2c(n(Cc3ccc(OCC(F)(F)F)cc3)c1=O)COC2` [Example 24, N-({4-hydroxy-2-oxo-1-[4-(2,2,2-trifluoroethoxy)benzyl]-1,2,5,7-tetrahydrofuro[3,4-b]pyridin-3-yl}carbonyl)glycine] the IC50 was < 10 nM. In the case of `O=C(O)CNC(=O)c1c(O)c2c(n(Cc3ccc(-c4ccc(Cl)cc4Cl)cc3)c1=O)COC2` [Example 35], the IC50 is reported as < 10 nM. For `O=C(O)CNC(=O)c1c(O)c2c(n(Cc3ccc(Br)cc3)c1=O)COC2` [Example 10, N-{[1-(4-bromobenzyl)-4-hydroxy-2-oxo-1,2,5,7-tetrahydrofuro[3,4-b]pyridin-3-yl]carbonyl)glycine], the IC50 was < 10 nM. With `Cc1nn(-c2ccccc2)nc1Cn1c2c(c(O)c(C(=O)NCC(=O)O)c1=O)COC2` [Example 21, N-({4-hydroxy-1-[(5-methyl-2-phenyl-2H-1,2,3-triazol-4-yl)methyl]-2-oxo-1,2,5,7-tetrahydrofuro[3,4-b]pyridin-3-yl}carbonyl)glycine] the IC50 was < 10 nM. For `CC1OCc2c1c(O)c(C(=O)NCC(=O)O)c(=O)n2Cc1ccc(C(F)(F)F)nc1` (stereo not shown) [Example 14, N-[(4-hydroxy-5-methyl-2-oxo-1-{[6-(trifluoromethyl)pyridine-3-yl]methyl}-1,2,5,7-tetrahydrofuro[3,4-b]pyridin-3-yl}carbonyl)glycine], the IC50 was < 10 nM. In the case of `O=C(O)CNC(=O)c1c(O)c2c(n(Cc3ccc(Cl)nc3)c1=O)COC2` [Example 9, N-({1-[(6-chloropyridin-3-yl)methyl]-4-hydroxy-2-oxo-1,2,5,7-tetrahydrofuro[3,4-b]pyridin-3-yl}carbonyl)glycine], the IC50 is reported as < 10 nM. In the case of `O=C(O)CNC(=O)c1c(O)c2c(n(CC3Cc4ccccc4C3)c1=O)COC2` [Example 11, N-{[1-(2,3-dihydro-1H-inden-2-ylmethyl)-4-hydroxy-2-oxo-1,2,5,7-tetrahydrofuro[3,4-b]pyridin-3-yl]carbonyl}glycine], the IC50 is reported as < 10 nM. Work on `CC1(C)OCc2c(O)c(C(=O)NCC(=O)O)c(=O)n(Cc3nc4ccccc4s3)c21` [Example 25] yielded an IC50 of 10 to 100 nM. In the case of `O=C(O)CNC(=O)c1c(O)c2c(n(Cc3ccc(-c4ccccc4Cl)cc3F)c1=O)COC2` [Example 38], the IC50 is reported as < 10 nM. For `O=C(O)CNC(=O)c1c(O)c2c(n(Cc3ccn(-c4ccc(F)cc4)n3)c1=O)COC2` [Example 22], the IC50 was < 10 nM. In the case of `Cn1cc(-c2ccc(Cn3c4c(c(O)c(C(=O)NCC(=O)O)c3=O)COC4)cn2)cn1` [Example 43, N-[(4-hydroxy-1-{[6-(1-methyl-1H-pyrazol-4-yl)pyridin-3-yl)methyl}-2-oxo-1,2,5,7-tetrahydrofuro[3,4-b]pyridin-3-yl)carbonyl]glycine], the IC50 is reported as < 10 nM. With `O=C(O)CNC(=O)c1c(O)c2c(n(Cc3ccc(-c4ccc(F)cc4Cl)cc3)c1=O)COC2` [Example 37] the IC50 was < 10 nM.
